Common to all, as to type: biochemical
Experiment [1] addresses T1, HDAC3:SMRT complex (Homo sapiens, UniProt O15379).
T1 construct: Full-length HDAC3, and residues 350–480 of SMRT were cloned into pcDNA3 vectors; residues 350–480 of SMRT were cloned into pcDNA3 vectors; FLAG tag with TEV protease cleavage site (cleaved yes); made in house; host or cells: HEK293F cells (co-transfection, pcDNA3)
As to the kind of experiment: Activation of HDAC3:SMRT deacetylase activity by inositol phosphates (BOC-Lys-AMC assay). The conditions noted are these: BOC-Lys-AMC assay; one-site binding fit of HDAC activity vs inositol phosphate concentration; read-out: Kdapp (apparent Kd from activation titration). Here is the method: (§1) To understand the stereochemical basis underlying the activation of HDAC3 by inositol phosphates we investigated the ability of a range of inositol phosphates and derivatives to enhance the activity of HDAC3 in deacetylase assays. To achieve this we used an assay based on the complex of HDAC3 with an extended SMRT construct which is stable in the absence of inositol phosphate.
(§2) HDAC activity of the protein complex was measured using an HDAC assay with a BOC-Lys-AMC substrate. 50 nM HDAC3:SMRT or 50 nM HDAC1:MTA1 was incubated with 100 μM BOC-Lys-AMC substrate in a final volume of 50 μl buffer A (50 mM Tris pH 7.5, 50 mM NaCl, 5% Glycerol), in a black 96-well plate for 30 min at 37 °C.
(§3) To test the ability of inositol phosphates and derivatives to activate the complex, 50 nM HDAC3:SMRT (which had been stripped of its endogenous co-purified inositol phosphate) or 50 nM HDAC1:MTA1 was incubated with inositol phosphate or analogue for 30 min at 37 °C before the HDAC activity was measured. All measurements were performed in triplicate and data analysed using GraphPad Prism (version 6.0, GraphPad Software, Inc).

Experiment [2] deals with T2, HDAC3:SMRT complex (Homo sapiens, UniProt O15379+Q9Y618).
T2 construct: Full-length HDAC3, and residues 350–480 of SMRT were cloned into pcDNA3 vectors; residues 350–480 of SMRT were cloned into pcDNA3 vectors; FLAG tag with TEV protease cleavage site (cleaved yes); made in house; host or cells: HEK293F cells (co-transfection, pcDNA3)
T2 sequence (O15379 whole entry, the tested form may be a part): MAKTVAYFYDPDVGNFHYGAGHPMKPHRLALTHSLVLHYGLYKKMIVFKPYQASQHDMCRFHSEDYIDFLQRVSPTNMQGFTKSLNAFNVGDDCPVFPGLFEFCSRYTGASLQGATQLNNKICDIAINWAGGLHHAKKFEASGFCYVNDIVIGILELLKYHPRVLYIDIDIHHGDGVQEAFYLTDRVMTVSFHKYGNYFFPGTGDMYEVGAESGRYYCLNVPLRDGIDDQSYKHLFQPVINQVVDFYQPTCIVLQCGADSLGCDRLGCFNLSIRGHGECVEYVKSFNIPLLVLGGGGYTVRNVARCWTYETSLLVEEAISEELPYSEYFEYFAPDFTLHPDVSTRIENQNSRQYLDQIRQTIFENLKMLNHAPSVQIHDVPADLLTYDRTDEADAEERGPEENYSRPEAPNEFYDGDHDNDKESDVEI
T2 sequence (Q9Y618 350-480): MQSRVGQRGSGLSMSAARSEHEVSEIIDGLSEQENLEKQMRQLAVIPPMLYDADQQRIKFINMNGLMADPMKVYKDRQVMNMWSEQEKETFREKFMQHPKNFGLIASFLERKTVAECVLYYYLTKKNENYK
The description is as above. The protocol: as §1, §2, §3

The target of the next experiment is T3, HDAC1:MTA1 complex (Homo sapiens, UniProt Q13330+Q13547).
T3 construct: Full-length HDAC1 and residues 162–354 of MTA1 were cloned into pcDNA3 vectors; residues 162–354 of MTA1 were cloned into pcDNA3 vectors; FLAG tag with TEV protease cleavage site (cleaved yes); made in house; host or cells: HEK293F cells (co-transfection, pcDNA3)
T3 sequence (Q13547 whole entry, the tested form may be a part): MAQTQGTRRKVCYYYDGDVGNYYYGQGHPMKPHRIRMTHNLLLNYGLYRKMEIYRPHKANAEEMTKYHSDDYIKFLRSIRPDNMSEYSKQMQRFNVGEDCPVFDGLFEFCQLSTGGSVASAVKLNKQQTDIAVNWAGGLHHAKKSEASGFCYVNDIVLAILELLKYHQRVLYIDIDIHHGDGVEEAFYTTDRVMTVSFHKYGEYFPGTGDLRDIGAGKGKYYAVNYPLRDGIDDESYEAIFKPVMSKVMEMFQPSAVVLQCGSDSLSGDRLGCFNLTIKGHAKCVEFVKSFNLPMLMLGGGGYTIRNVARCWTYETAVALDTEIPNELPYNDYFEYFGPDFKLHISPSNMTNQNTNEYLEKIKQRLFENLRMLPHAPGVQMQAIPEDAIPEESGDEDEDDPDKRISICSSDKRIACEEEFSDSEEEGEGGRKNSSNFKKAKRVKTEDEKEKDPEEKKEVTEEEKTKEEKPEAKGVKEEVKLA
T3 sequence (Q13330 162-354): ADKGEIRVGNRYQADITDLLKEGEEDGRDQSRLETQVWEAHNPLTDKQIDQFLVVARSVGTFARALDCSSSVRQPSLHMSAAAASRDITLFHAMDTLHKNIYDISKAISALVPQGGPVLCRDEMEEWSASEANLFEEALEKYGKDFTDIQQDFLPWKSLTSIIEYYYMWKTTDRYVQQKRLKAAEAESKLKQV
As to the kind of experiment: Activation of HDAC1:MTA1 deacetylase activity by inositol phosphates (BOC-Lys-AMC assay). Here is the method:
as §2, §3

In a further experiment the target is HDAC3:SMRT (Homo sapiens, UniProt O15379+Q9Y618). In words: Michaelis-Menten enzyme kinetics on Caliper EZ Reader with H4K16ac peptide. On the set-up: Full-length HDAC3, and residues 350–480 of SMRT were cloned into pcDNA3 vectors; residues 350–480 of SMRT were cloned into pcDNA3 vectors; FLAG tag with TEV protease cleavage site (cleaved yes); made in house; host or cells: HEK293F cells (co-transfection, pcDNA3). As to conditions: H4 12–18K16ac peptide; in the presence of the inositol phosphate. The source says: (§4) To explore further the differences between the two complexes we established a more physiological, real-time kinetic assay using substrates based on the tails of histones H4 and H3. The peptides tested were; H4 12–18(K16ac), H3 23–29(K27ac) and H3 6–12(K9ac). […] HDAC3:SMRT is most catalytically active against H3 23–29(K27ac) (Supplementary Fig. 7), whereas HDAC1:MTA1 is most catalytically active against H4 12–18(K16ac) (Fig. 4d). In both cases an approximate 3-fold greater kcat is observed for the preferred versus non-preferred substrate, in the absence of inositol phosphate. […] The net effect of both inositol phosphates tested was between a two and fivefold increase in catalytic efficiency (kcat/Km) (Fig. 4c,d, Supplementary Fig. 7).
Sequence of HDAC3:SMRT (O15379 whole entry, the tested form may be a part): as the sequence (O15379 whole entry, the tested form may be a part) above
Sequence of HDAC3:SMRT (Q9Y618 350-480): as the sequence (Q9Y618 350-480) above
(§5) Michaelis–Menten kinetics were determined using a HDAC assay on the Caliper EZ Reader II system (Caliper Life Sciences, http://www.caliperls.com). To assess the effect of inositol phosphate, 20 nM HDAC3:SMRT or 80 nM HDAC1:MTA1 were pre-mixed with InsP6 before dilution and addition of fluorescein-labelled H4K16Ac substrate. Reactions were carried out in duplicate in 30 μl reaction volumes, performed at room temperature in 50 mM Tris pH 7.5, 50 mM NaCl, 5% glycerol. Data was analysed using GraphPad Prism (version 6.0).

The target in another experiment is T4, HDAC1:MTA1 (Homo sapiens, UniProt Q13330+Q13547).
T4 construct: Full-length HDAC1 and residues 162–354 of MTA1 were cloned into pcDNA3 vectors; residues 162–354 of MTA1 were cloned into pcDNA3 vectors; FLAG tag with TEV protease cleavage site (cleaved yes); made in house; host or cells: HEK293F cells (co-transfection, pcDNA3)
T4 sequence (Q13547 whole entry, the tested form may be a part): as the sequence (Q13547 whole entry, the tested form may be a part) above
T4 sequence (Q13330 162-354): as the sequence (Q13330 162-354) above
The description is as above. As to conditions: H4 12–18K16ac peptide; in the presence of the inositol phosphate.
Source text: as §4, §5

The target of the next experiment is T5, D99A HDAC1 mutant (Homo sapiens, UniProt Q13330+Q13547, D99A).
T5 construct: Full-length HDAC1 and residues 162–354 of MTA1 were cloned into pcDNA3 vectors; residues 162–354 of MTA1 were cloned into pcDNA3 vectors; FLAG tag with TEV protease cleavage site (cleaved yes); made in house
T5 sequence (Q13547 whole entry D99A, the tested form may be a part): as the sequence (Q13547 whole entry, the tested form may be a part) above, with D99A counted along it
T5 sequence (Q13330 162-354): as the sequence (Q13330 162-354) above
As to the kind of experiment: Deacetylase activity of D99A HDAC1 mutant (electrophoretic mobility shift assay, caliper platform). The conditions noted are these: addition of InsP6. Here is the method:
Figure 5 Inhibition of HDAC1:MTA1 by a novel peptide-based inhibitor. (a) Inhibition curve of HDAC1:MTA1 by the histone H4 peptide H4K16Hx. (b)The position of H4K16Hx (pink) bound to the active site of HDAC1 (purple). The sidechain of HDAC1 residue D99 undergoes a significant rearrangement (indicated by arrow) to coordinate binding of the peptide (apo-HDAC1 shown in grey). […] HDAC assays were performed using an electrophoretic mobility shift assay on the caliper platform. Error bars indicate±s.e.m. (n=3).

The values below come from publication PMC4848466, “Insights into the activation mechanism of class I HDAC complexes by inositol phosphates” (Nature Communications, 2016).

T1 sequence (O15379 whole entry, the tested form may be a part): as the sequence (O15379 whole entry, the tested form may be a part) above
T1 sequence (Q9Y618 350-480, further chain): as the sequence (Q9Y618 350-480) above

By kcat is commonly meant the maximal rate divided by the concentration of active sites. For `O=P(O)(O)O[C@H]1[C@H](OP(=O)(O)O)[C@@H](OP(=O)(O)O)[C@H](OP(=O)(O)O)[C@@H](OP(=O)(O)O)[C@H]1OP(=O)(O)O` [InsP6, inositol hexaphosphate], the Kd at HDAC3:SMRT complex [1] was determined as 600 nM; at HDAC1:MTA1 complex (read-out: Kdapp (apparent Kd from activation titration)), 4 µM. Besides, the “HDAC3 activation relative to maximal Ins(1,4,5,6)P4-stimulated activity” value at HDAC3:SMRT complex [2] (BOC-Lys-AMC assay, titration / maximal activation) is “same degree as Ins(1,4,5,6)P4”. The “increase in apparent affinity compared with Ins(1,4,5,6)P4” value on HDAC3:SMRT complex [2] (ratio of apparent Kd values) was 16 fold. Besides, at HDAC1:MTA1 complex, the “activation of HDAC1:MTA1 complex” value is “can be activated”. The kcat was 2.59 s⁻¹ on HDAC3:SMRT and 1.01 s⁻¹ at HDAC1:MTA1. Besides, the “rescue of deacetylase activity of D99A mutant” value at D99A HDAC1 mutant is on record as “activity is not rescued”.
